Target: T1, RORc ligand binding domain (Homo sapiens, UniProt P51449)
T1 sequence (P51449 269-508 limits assumed): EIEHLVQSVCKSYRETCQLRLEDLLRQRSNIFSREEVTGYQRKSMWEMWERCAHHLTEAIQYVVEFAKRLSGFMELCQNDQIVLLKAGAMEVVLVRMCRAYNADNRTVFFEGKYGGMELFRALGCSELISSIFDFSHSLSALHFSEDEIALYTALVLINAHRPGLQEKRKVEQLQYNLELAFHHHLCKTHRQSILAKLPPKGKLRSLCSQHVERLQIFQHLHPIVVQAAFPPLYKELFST
Experiment: In Vitro RORc Ligand Binding Assay
Conditions: RORc IC50, radioligand 25-[3H]hydroxycholesterol 6 nM; 0.6 ug/mL RORc receptor; 3 h at 25° C.

Row | Compound | IC50
1 | CC1(C)[C@H]2CC[C@]1(c1nc(C(=O)NCCO)ncc1F)c1nnc(-c3c(F)cccc3F)cc12 [Example 218] | 60.7 nM
2 | CC1(C)[C@H]2CC[C@]1(c1ccnc(-n3cnc(CO)c3)n1)c1nnc(-c3c(F)cccc3F)cc12 [Example 219] | 6.7 nM
3 | CC1(C)[C@H]2CC[C@]1(c1ccnc(-n3cnc(C#N)n3)n1)c1nnc(-c3c(F)cccc3F)cc12 [Example 220] | 25.3 nM
4 | C[C@@H](O)c1nnc(-c2cccc([C@@]34CC[C@@H](c5cc(-c6c(F)cccc6F)nnc53)C4(C)C)n2)[nH]1 [Example 221, (R)-1-(5-(6-((5R,8S)-3-(2,6-difluorophenyl)-9,9-dimethyl-5,6,7,8-tetrahydro-5,8-methanocinnolin-8-yl)pyridin-2-yl)-4H-1,2,4-triazol-3-yl)ethanol] | 23.3 nM
5 | C[C@H](O)c1nnc(-c2cccc([C@@]34CC[C@@H](c5cc(-c6c(F)cccc6F)nnc53)C4(C)C)n2)[nH]1 [Example 222, (S)-1-(5-(6-((5R,8S)-3-(2,6-difluorophenyl)-9,9-dimethyl-5,6,7,8-tetrahydro-5,8-methanocinnolin-8-yl)pyridin-2-yl)-4H-1,2,4-triazol-3-yl)ethanol] | 11 nM
6 | Cc1nnc(-c2ccnc([C@@]34CC[C@@H](c5cc(-c6c(F)cccc6F)nnc53)C4(C)C)c2)[nH]1 [Example 223] | 62.3 nM
7 | C[C@H](O)c1nnc(-c2cncc([C@@]34CC[C@@H](c5cc(-c6c(F)cccc6F)nnc53)C4(C)C)n2)[nH]1 [Example 224, (S)-1-(5-(6-((5R,8S)-3-(2,6-difluorophenyl)-9,9-dimethyl-5,6,7,8-tetrahydro-5,8-methanocinnolin-8-yl)pyrazin-2-yl)-4H-1,2,4-triazol-3-yl)ethanol] | 12.4 nM
8 | C[C@@H](O)c1nnc(-c2cncc([C@@]34CC[C@@H](c5cc(-c6c(F)cccc6F)nnc53)C4(C)C)n2)[nH]1 [Example 225, (R)-1-(5-(6-((5R,8S)-3-(2,6-difluorophenyl)-9,9-dimethyl-5,6,7,8-tetrahydro-5,8-methanocinnolin-8-yl)pyrazin-2-yl)-4H-1,2,4-triazol-3-yl)ethanol] | 21 nM
9 | CC1(C)[C@H]2CC[C@]1(c1cc(=O)[nH]cn1)c1nnc(-c3c(F)cccc3F)cc12 [Example 226, 6-((5R,8S)-3-(2,6-difluorophenyl)-9,9-dimethyl-5,6,7,8-tetrahydro-5,8-methanocinnolin-8-yl)pyrimidin-4(3H)-one] | 363 nM
10 | Cc1nc(C#N)ncc1[C@@]12CC[C@@H](c3cc(-c4c(F)cccc4F)nnc31)C2(C)C [Example 227, 5-((5R,8S)-3-(2,6-difluorophenyl)-9,9-dimethyl-5,6,7,8-tetrahydro-5,8-methanocinnolin-8-yl)-4-methylpyrimidine-2-carbonitrile] | 717 nM
11 | Cc1cc([C@@]23CC[C@@H](c4cc(-c5c(F)cccc5F)nnc42)C3(C)C)nc(C#N)n1 [Example 228] | 15.3 nM
12 | CC1(C)[C@H]2CC[C@]1(c1cccc(-c3cn[nH]c3)n1)c1nnc(-c3c(F)cccc3F)cc12 [Example 229] | 3 nM
13 | CC1(C)[C@H]2CC[C@]1(c1nc(C(=O)NCCO)ncc1Cl)c1nnc(-c3c(F)cccc3F)cc12 [Example 230] | 55.2 nM
14 | CC1(C)[C@H]2CC[C@]1(c1cncc(-n3ccnc3)n1)c1nnc(-c3c(F)cccc3F)cc12 [Example 231] | 6.3 nM
15 | CC1(C)[C@H]2CC[C@]1(c1ccnc(-n3cnc(C(N)=O)n3)n1)c1nnc(-c3c(F)cccc3F)cc12 [Example 232] | 27.9 nM
16 | CC1(C)[C@H]2CC[C@]1(c1nc(C#N)ncc1Cl)c1nnc(-c3c(F)cccc3F)cc12 [Example 233] | 13.8 nM
17 | CC(C)(O)c1nnc(-c2ncc(F)c([C@@]34CC[C@@H](c5cc(-c6c(F)cccc6F)nnc53)C4(C)C)n2)[nH]1 [Example 234] | 36.6 nM
18 | CC1(C)[C@H]2CC[C@]1(c1cc(-c3cnc(CO)o3)ccn1)c1nnc(-c3c(F)cccc3F)cc12 [Example 235] | 9.4 nM
19 | CC1(C)[C@H]2CC[C@]1(c1cncc(-n3cnc(CO)c3)n1)c1nnc(-c3c(F)cccc3F)cc12 [Example 236] | 5.8 nM
20 | CC1(C)[C@H]2CC[C@]1(c1cccc(C(O)CO)n1)c1nnc(-c3c(F)cccc3F)cc12 (stereo partly drawn) [Example 237, 1-(6-((5R,8S)-3-(2,6-difluorophenyl)-9,9-dimethyl-5,6,7,8-tetrahydro-5,8-methanocinnolin-8-yl)pyridin-2-yl)ethane-1,2-diol] | 2.6 nM
21 | CC1(C)[C@H]2CC[C@]1(c1ccnc(-n3cc(CO)cn3)n1)c1nnc(-c3c(F)cccc3F)cc12 [Example 238] | 39.4 nM

The remaining lines, values ahead:

Row | IC50 | Compound
22 | 13.9 nM | CC(C)(O)c1cn(-c2nccc([C@@]34CC[C@@H](c5cc(-c6c(F)cccc6F)nnc53)C4(C)C)n2)cn1 [Example 239]
23 | 4.5 nM | CC(C)(O)c1coc(-c2cccc([C@@]34CC[C@@H](c5cc(-c6c(F)cccc6F)nnc53)C4(C)C)n2)n1 [Example 240, 2-(2-(6-((5R,8S)-3-(2,6-difluorophenyl)-9,9-dimethyl-5,6,7,8-tetrahydro-5,8-methanocinnolin-8-yl)pyridin-2-yl)oxazol-4-yl)propan-2-ol]
24 | 11 nM | Cc1cc(-c2ccnc([C@@]34CC[C@@H](c5cc(-c6c(F)cccc6F)nnc53)C4(C)C)n2)on1 [Example 241, 5-(2-((5R,8R)-3-(2,6-difluorophenyl)-9,9-dimethyl-5,6,7,8-tetrahydro-5,8-methanocinnolin-8-yl)pyrimidin-4-yl)-3-methylisoxazole]
25 | 5 nM | CC1(C)[C@H]2CC[C@]1(c1c(Br)cnc(C#N)c1F)c1nnc(-c3c(F)cccc3F)cc12 [Example 242, 5-bromo-4-((5R,8S)-3-(2,6-difluorophenyl)-9,9-dimethyl-5,6,7,8-tetrahydro-5,8-methanocinnolin-8-yl)-3-fluoropicolinonitrile]
26 | 11.7 nM | CC1(C)[C@H]2CC[C@]1(c1cncc(-n3cc(CO)cn3)n1)c1nnc(-c3c(F)cccc3F)cc12 [Example 243, (1-(6-((5R,8S)-3-(2,6-difluorophenyl)-9,9-dimethyl-5,6,7,8-tetrahydro-5,8-methanocinnolin-8-yl)pyrazin-2-yl)-1H-pyrazol-4-yl)methanol]
27 | 120 nM | CC1(C)[C@H]2CC[C@]1(c1cc(-c3c[nH]c(=O)[nH]3)ccn1)c1nnc(-c3c(F)cccc3F)cc12 [Example 244]
28 | 26.4 nM | CC1(C)[C@@H]2CC[C@@]1(c1nc(C#N)ncc1Cl)c1nnc(-c3c(F)cccc3F)cc12 [Example 245]
29 | 8.4 nM | CC1(C)[C@H]2CC[C@]1(c1cncc(-c3ccn[nH]3)n1)c1nnc(-c3c(F)cccc3F)cc12 [Example 246]
30 | 20 nM | CC(C)(O)c1cc(-c2cncc([C@@]34CC[C@@H](c5cc(-c6c(F)cccc6F)nnc53)C4(C)C)n2)[nH]n1 [Example 247, 2-(5-(6-((5R,8S)-3-(2,6-difluorophenyl)-9,9-dimethyl-5,6,7,8-tetrahydro-5,8-methanocinnolin-8-yl)pyrazin-2-yl)-1H-pyrazol-3-yl)propan-2-ol]
31 | 27 nM | CC(C)(O)c1noc(-c2cncc([C@@]34CC[C@@H](c5cc(-c6c(F)cccc6F)nnc53)C4(C)C)n2)n1 [Example 248, 2-(5-(6-((5R,8S)-3-(2,6-difluorophenyl)-9,9-dimethyl-5,6,7,8-tetrahydro-5,8-methanocinnolin-8-yl)pyrazin-2-yl)-1,2,4-oxadiazol-3-yl)propan-2-ol]
32 | 50.1 nM | CC(C)(O)c1nnc(-c2ncc(Cl)c([C@@]34CC[C@@H](c5cc(-c6c(F)cccc6F)nnc53)C4(C)C)n2)[nH]1 [Example 249]
33 | 22.8 nM | CC1(C)[C@H]2CC[C@]1(c1nc(C(N)=O)ncc1F)c1nnc(-c3c(F)cccc3F)cc12 [Example 250]
34 | 9.8 nM | CC1(C)[C@H]2CC[C@]1(c1ccnc(-c3ccn[nH]3)n1)c1nnc(-c3c(F)cccc3F)cc12 [Example 251]
35 | 19.3 nM | CC1(C)[C@H]2CC[C@]1(c1ccnc(-n3ccc(CO)n3)n1)c1nnc(-c3c(F)cccc3F)cc12 [Example 252]
36 | 5.7 nM | CC1(C)[C@H]2CC[C@]1(c1ccnc(-c3cn[nH]c3)n1)c1nnc(-c3c(F)cccc3F)cc12 [Example 253]
37 | 4.4 nM | CC1(C)[C@H]2CC[C@]1(c1ccnc(-c3cccnc3)n1)c1nnc(-c3c(F)cccc3F)cc12 [Example 254]
38 | 8.6 nM | Cc1ncn(-c2cncc([C@@]34CC[C@@H](c5cc(-c6c(F)cccc6F)nnc53)C4(C)C)n2)n1 [Example 255]
39 | 10.1 nM | CC(C)(O)c1nc(-c2cncc([C@@]34CC[C@@H](c5cc(-c6c(F)cccc6F)nnc53)C4(C)C)n2)no1 [Example 256, 2-(3-(6-((5R,8S)-3-(2,6-difluorophenyl)-9,9-dimethyl-5,6,7,8-tetrahydro-5,8-methanocinnolin-8-yl)pyrazin-2-yl)-1,2,4-oxadiazol-5-yl)propan-2-ol]
40 | 22.6 nM | C[C@H](O)c1nnc(-c2ncc(F)c([C@@]34CC[C@@H](c5cc(-c6c(F)cccc6F)nnc53)C4(C)C)n2)[nH]1 [Example 257]
41 | 21.6 nM | C[C@@H](O)c1nnc(-c2ncc(F)c([C@@]34CC[C@@H](c5cc(-c6c(F)cccc6F)nnc53)C4(C)C)n2)[nH]1 [Example 258]
42 | 8.7 nM | CC(C)(O)c1cc(-c2cncc([C@@]34CC[C@@H](c5cc(-c6c(F)cccc6F)nnc53)C4(C)C)n2)no1 [Example 259, 2-(3-(6-((5R,8S)-3-(2,6-difluorophenyl)-9,9-dimethyl-5,6,7,8-tetrahydro-5,8-methanocinnolin-8-yl)pyrazin-2-yl)isoxazol-5-yl)propan-2-ol]
43 | 12.4 nM | CC(C)(O)c1nnc(-c2cncc([C@@]34CC[C@@H](c5cc(-c6c(F)cccc6F)nnc53)C4(C)C)n2)o1 [Example 260, 2-(5-(6-((5R,8S)-3-(2,6-difluorophenyl)-9,9-dimethyl-5,6,7,8-tetrahydro-5,8-methanocinnolin-8-yl)pyrazin-2-yl)-1,3,4-oxadiazol-2-yl)propan-2-ol]
